Assay results from paper PMC10539439 (Pharmacological Reports, 2023).
Values joined by “and” are separate entries in the source; they are usually repeats but may differ in a detail not shown here. Equal entries are not always repeated.

What was measured:
[1] = target: T1, α2-adrenoceptor (Rattus norvegicus, UniProt P22909); test: Competitive radioligand-binding assay, [3H]clonidine; settings: for CPM: ADRA2, experiments 1-3, duplicates; for Affinity towards α2-adrenoceptors: summary table
T1 sequence (P22909 1-465): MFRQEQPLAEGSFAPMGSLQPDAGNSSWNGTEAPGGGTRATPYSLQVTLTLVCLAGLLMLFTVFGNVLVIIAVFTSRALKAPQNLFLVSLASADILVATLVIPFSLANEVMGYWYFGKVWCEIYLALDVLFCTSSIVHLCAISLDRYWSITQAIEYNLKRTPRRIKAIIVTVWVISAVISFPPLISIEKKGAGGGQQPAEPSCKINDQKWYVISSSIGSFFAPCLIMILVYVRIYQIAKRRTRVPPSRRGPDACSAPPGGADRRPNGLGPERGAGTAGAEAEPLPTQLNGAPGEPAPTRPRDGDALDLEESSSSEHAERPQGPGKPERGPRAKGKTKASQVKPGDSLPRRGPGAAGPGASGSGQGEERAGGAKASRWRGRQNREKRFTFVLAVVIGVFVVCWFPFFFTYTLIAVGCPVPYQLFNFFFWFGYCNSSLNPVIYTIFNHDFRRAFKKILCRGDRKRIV
Description: 10 mM stock solutions of test compounds were prepared in DMSO. Serial dilutions of compounds were prepared in 96-well microplate in assay buffers using an automated pipetting system epMotion 5070 (Eppendorf, Poland). Each compound was tested in 6 concentrations of 1.0E-05 to 1.0E-10 M (final concentration).
Affinity towards α1- and α2-adrenoceptors was evaluated using the competitive radioligand-binding assay. Experiments were conducted in the rat cerebral cortex. Radioligand [3H]prazosin (84,2 Ci/mmol, α1-adrenoceptor, PerkinElmer, Poland, NET823001MC) and [3H]clonidine (70.5 Ci/mmol, α2-adrenoceptor, PerkinElmer, Poland, NET613250UC) were used. The membrane preparation and the assay procedure were carried out accordingly as previously published. Radioactivity was counted on the MicroBeta2 scintillation counter (PerkinElmer, Poland). Data were fitted to a one-site curve-fitting equation with Prism 8 (GraphPad Software, USA), and Ki values were estimated from the Cheng–Prusoff equation.

[2] = Pharmacokinetics in plasma after ip administration; assay type: in vivo, rat; settings: for concentration at 5 min / concentration at 15 min / concentration at 30 min / concentration at 60 min / concentration at 120 min / concentration at 240 min / CL/F / Tmax / Vd/F / half-life: male, Wistar, plasma; for concentration at 5 min / concentration at 15 min / concentration at 30 min / concentration at 60 min / concentration at 120 min / concentration at 240 min / CL/F / Tmax / Vd/F / half-life / volume of distribution: rat; for concentration at 5 min / concentration at 15 min / concentration at 30 min / concentration at 60 min / concentration at 120 min / concentration at 240 min: intraperitoneal, mean; for concentration at 5 min: 5 min after administration; for concentration at 15 min: 15 min after administration; for concentration at 30 min: 30 min after administration; for concentration at 60 min: 60 min after administration; for concentration at 120 min: 120 min after administration; for concentration at 240 min: 240 min after administration; for CL/F / Tmax / Vd/F / half-life / t0.5 terminal half-life / volume of distribution: ip; for half-life / t0.5 terminal half-life: rat plasma; for half-life / t0.5 terminal half-life / volume of distribution: Guanabenz 0.3 mg/kg, 4-OH-Guanabenz 0.4 mg/kg; for half-life: read-out: t0.5 terminal half-life
Description: For the pharmacokinetic study, a group of 56 adult male rats (Wistar, 220–250 g, […]) were used in the experiment. Animals were purchased from the Animal House of the Faculty of Pharmacy of Jagiellonian University Medical College, Krakow, Poland. During the habituation period, the groups of 4 rats were kept in a plastic cage at a controlled room temperature (22 ± 2 ℃), humidity (55 ± 10%), full-spectrum cold white light (350–400 lx), in 12 h light/dark cycles (the lights on at 7:00 am, and off at 19:00 pm), and had free access to standard laboratory pellet and tap water. […] These were then given through an intraperitoneally injections (ip) at a dose of 0.3 mg/kg and 0.4 mg/kg, respectively. Blood samples were collected at 0 min (predose), 5 min, 15 min, 30 min, 60 min, 120 min, and 240 min after compound administration. Blood and brain samples were collected under general anesthesia induced by ip injections of 50 mg/kg ketamine plus 8 mg/kg xylazine. Blood samples were taken in heparinized tubes and immediately centrifuged at 3500 rpm for 10 min, and plasma was collected. Brain and plasma samples were immediately frozen at – 80 ℃ for LC/MS/MS analysis. All experimental procedures were carried out according to EU Directive 2010/63/EU and approved by the I Local Ethics Committee for Animal Experiments of the Jagiellonian University in Krakow, Poland (No. 94/2016).
The pharmacokinetic parameters were calculated using a non-compartmental approach from the average concentration values, using Phoenix WinNonlin software (Certara, Princeton, NJ 08540 USA). The first-order elimination rate constant (λz) was calculated by linear regression of time versus log concentration. Next, the area under the mean plasma and the concentration in the brain versus the time curve (AUC0→t) were estimated using the log-linear trapezoidal rule (Eq. 1), where Cn is the concentration of the last sampling of each compound1 AUC0→t=∑i=1n(Ci+Ci+1)/2·ti+1-ti+Cn/λz.
The area under the first-moment curve (AUMC0→t) was estimated by calculating of the total area under the first-moment curve using Eq. 2, where tn is the time of last sampling2 AUMC0→t=∑i=1n(ti·Ci+ti+1·Ci+1)/2·ti+1-ti+(tn·Cn)/λz+Cn/λz2.
Mean residence time (MRT, Eq. 3) was calculated as3 MRT=AUMC0→t/AUC0→t.
Total clearance (ClT, Eq. 4) was calculated as4 C1T=F·Di.p./AUC0→t.
The quantification of compounds in plasma and brain samples was performed using the Sciex API 3200 triple quadrupole mass spectrometer (Concord, Ontario, Canada) equipped with an electrospray (ESI) ionization interface. This instrument was coupled to an Elite LaChrom (Hitachi, USA) HPLC system. Data acquisition and processing were performed using Sciex Analyst 1.5.2 data collection and integration software. After preparation, the samples were injected (20 µL) onto XBridge C18 (2.1 mm × 30 mm, 3.5 μm, Waters, Milford, Massachusetts, USA) analytical column. The mobile phase consisted of 0.1% formic acid in acetonitrile (A) and 0.1% formic acid in water (B) was delivered in a gradient elution starting with 90% of eluent B, increasing for 2 min to 90% of eluent A, maintained for 3 min, and then returned for 5 min to 90% of eluent B, and maintained 90% of eluent B during 5 min at a flow rate of 300 µL/min. The total analysis time was 10 min. […] The ion spray source settings were as follows: spray voltage: 5.5 kV, heater temperature: 400 °C, curtain gas: 10 psi, source gas 1: 20 psi, and source gas 2: 20 psi.
Further dilutions were performed using the same solvent to prepare working standard solutions of the analyte at the following concentrations: 0.025, 0.05, 0.1, 0.25, 0.5, 1.0, 2.5, 5.0, 10, 25, and 50 µg/mL for calibration curve samples (CC) and 0.025, 0.075, 2.2, and 4.5 µg/mL for quality control samples (QC). […]

For `Cl.N=C(N)NN=Cc1c(Cl)cc(O)cc1Cl` [4-OH-Guanabenz, 2-[(2,6-Dichloro-4-hydroxyphenyl)methylene]hydrazinecarboximidamide Hydrochloride], the “affinity toward α2-adrenoreceptor (in words)” value [1] was “high affinity”, the CPM ([1]; log of molar concentration -5) was 78 CPM and 116 CPM and 96 CPM and 117 CPM and 113 CPM and 111 CPM and the CPM ([1]; log of molar concentration -6) was 132 CPM and 157 CPM and 112 CPM and 131 CPM and 141 CPM. For the same molecule, the CPM ([1]; log of molar concentration -7) was 198 CPM and 156 CPM and 131 CPM and 190 CPM and 205 CPM, the CPM ([1]; log of molar concentration -8) was 314 CPM and 316 CPM and 394 CPM and 302 CPM and 300 CPM and the CPM ([1]; log of molar concentration -9) was 420 CPM and 340 CPM and 383 CPM and 296 CPM and 320 CPM and 437 CPM. For the same molecule, the CPM ([1]; log of molar concentration -10) was 404 CPM and 380 CPM and 358 CPM and 403 CPM and 400 CPM and 370 CPM, the “Affinity towards α2-adrenoceptors” value [1] was “+” and the concentration at 5 min [2] was 54.3 ng/mL. The concentration at 15 min [2] was 101 ng/mL, the concentration at 30 min [2] was 20.2 ng/mL and the concentration at 60 min [2] was 41.9 ng/mL. For the same molecule, the concentration at 120 min [2] was 8.65 ng/mL, the concentration at 240 min [2] was 6.52 ng/mL and the CL/F [2] was 17.7 mL/min/kg. It also gave a Tmax [2] of 0.25 h, a Vd/F [2] of 1.75 L/kg and a half-life [2] of roughly 1.15 h. The t0.5 terminal half-life [2] was 1.14 h and the volume of distribution [2] was 1.7 L/kg.
For `N=C(N)N/N=C/c1c(Cl)cccc1Cl` [Guanabenz], the CPM ([1]; log of molar concentration -6) was 89 CPM and 117 CPM and 99 CPM and 116 CPM and 125 CPM and 115 CPM, the CPM ([1]; log of molar concentration -7) was 120 CPM and 135 CPM and 148 CPM and 196 CPM and 133 CPM and the CPM ([1]; log of molar concentration -8) was 152 CPM and 165 CPM and 205 CPM and 265 CPM and 170 CPM. For the same molecule, the CPM ([1]; log of molar concentration -10) was 320 CPM and 325 CPM and 437 CPM and 458 CPM and 265 CPM and 270 CPM, the “Affinity towards α2-adrenoceptors” value [1] was “+” and the concentration at 5 min [2] was 10.2 ng/mL. For the same molecule, the concentration at 15 min [2] was 91.2 ng/mL, the concentration at 30 min [2] was 95.1 ng/mL and the concentration at 60 min [2] was 14.2 ng/mL. For the same molecule, the concentration at 120 min [2] was 26.1 ng/mL, the concentration at 240 min [2] was 8.53 ng/mL and the CL/F [2] was 13.5 mL/min/kg. It also gave a Tmax [2] of 0.5 h, a Vd/F [2] of 1.61 L/kg and a half-life [2] of roughly 1.38 h. It also gave a t0.5 terminal half-life [2] of 1.38 h and a volume of distribution [2] of 1.6 L/kg.
